The source of these data is ChEMBL document CHEMBL3045477, “Dysfunctionality of the xylem in Olea europaea L. Plants associated with the infection process by Verticillium dahliae Kleb. Role of phenolic compounds in plant defense mechanism” (J Agric Food Chem, 2007).

One may read the IC50 as the point on the concentration scale where inhibition reaches its midpoint.

In brackets after ≈: the same amount, converted by molar mass.

The test system of this test is Verticillium dahliae. The experiment in a line: Antifungal activity against Verticillium dahliae assessed as inhibition of mycelial radial growth measured after 350 hr. Type of test: functional, organism-based.
`Oc1cc(O)c2c(c1)OC(c1ccc(O)c(O)c1)C(O)C2` (stereo not drawn) [CATECHIN]: the 50% inhibitory concentration (IC50) turned out to be 2100 µg/mL (≈ 7230 µM). With `O=C(O)/C=C/c1ccc(O)cc1` [COUMARIC ACID] the figure was 1470 µg/mL (≈ 8950 µM); with `O=c1cc(-c2ccc(O)c(O)c2)oc2cc(O[C@@H]3O[C@H](CO)[C@@H](O)[C@H](O)[C@H]3O)cc(O)c12` [GALUTEOLIN], 260 µg/mL (≈ 580 µM); with `O=c1cc(-c2ccc(O)c(O)c2)oc2cc(O)cc(O)c12` [LUTEOLIN], 7 µg/mL (≈ 24.5 µM). With `C/C=C1/[C@H](O[C@@H]2O[C@H](CO)[C@@H](O)[C@H](O)[C@H]2O)OC=C(C(=O)OC)[C@H]1CC(=O)OCCc1ccc(O)c(O)c1` [OLEUROPEIN] the figure was 170 µg/mL (≈ 315 µM). `O=c1c(O)c(-c2ccc(O)c(O)c2)oc2cc(O)cc(O)c12` [QUERCETIN]: the IC50 amounted to 6 µg/mL (≈ 19.9 µM). The same measure for `C[C@@H]1O[C@@H](OC[C@H]2O[C@@H](Oc3c(-c4ccc(O)c(O)c4)oc4cc(O)cc(O)c4c3=O)[C@H](O)[C@@H](O)[C@@H]2O)[C@H](O)[C@H](O)[C@H]1O` [RUTIN]: 80 µg/mL (≈ 131 µM); for `OCCc1ccc(O)cc1` [TYROSOL]: 660 µg/mL (≈ 4780 µM).
